Laboratory results taken from patent US11471460B2, “Autophagy modulators for use in treating cancer” (The United States of America,as represented by the …, priority 2017, dated 2022).

Assays:
[1] = test system: cathepsin D (CTSD) in U2OS cells; test: Cathepsin D maturation, Western immuno-blotting; assay type: cell-based, human; settings: 4 h
Description: Mature and immature cathepsin D (CTSD), LC3-I, LC3-II, and β-actin proteins were identified by Western immuno-blotting, under the same conditions, and detected with specific antibodies and by co-fractionation with molecular mass markers (kDa). Cathepsin D maturation via proteolysis requires acidity.
Total cell lysates were prepared (in 4× dye). Proteins were fractionated at 200V in a NuPAGE 4-12% bis-tris polyacrylamide gel (NP0323, Novex) using NuPAGE MES running buffer (NP0002, Novex) and then stained with PageBlue (24260, Thermo Scientific) in order to quantify the relative amount of histones in each sample. […] Proteins were wet-transferred onto nitrocellulose membranes (162-0112, Bio-Rad) using NuPAGE transfer buffer (NP-0006-1, Novex) for 1 hour at 30V. Membranes were then stained with dilute Ponceau S solution, blocked in 5% milk for 30 minutes at room temperature, and incubated overnight at 4° C. in primary antibody. Membranes were washed with phosphate buffered saline with tween 20 (PBST) three times for 10 min. each, incubated with secondary antibodies in 5% milk for 1 hour, washed three times with PBST again, covered in ECL (SuperSignal West Pico chemiluminescent substrate, 34080, Thermo Scientific) and exposed to film (HyBlot ES, E3218, Denville Scientific).

U2OS cells = test: GFP-LC3 / LAMP1-RFP co-localization (autolysosome formation); assay type: cell-based, human; settings: compound 1 or rapamycin and compound 1, 4 hours
Description: Confocal microscopic images are shown in FIG. 13A of U2OS cells that were co-transfected with a GFP-LC3B expression vector to label autophagosomes green and a LAMP1-RFP expression vector to label lysosomes red. Cells were then treated for 4 hrs with 1 μM rapamycin to induce autophagy, or with 1 μM compound 1 to disrupt autophagy, or with both 1 μM rapamycin and 1 μM compound 1. Cells were then fixed and viewed by confocal microscopy. Nuclei were stained with DAPI. […] The mean±SEM results from 50 cells is given for two independent experiments.
To determine whether or not the absence of an acidic environment resulted from failure of lysosomes to fuse with autophagosomes, cells were transfected with both GFP-LC3 and LAMP1-RFP expression vectors, and then cultured for 4 hours in the presence of vehicle, rapamycin, or both rapamycin and compound 1 (FIG. 13). Rapamycin is an established inducer of autophagy (42, 43). As expected, rapamycin induced accumulation of GFP-LC3 labeled autophagosomes (green), some of which were autolysosomes, as shown by co-localization with LAMP1-RFP on control cells. In contrast, GFP-LC3 and LAMP1-RFP labeled different populations of vesicles in cells cultured with either compound 1 or rapamycin and compound 1, despite the fact that the density of autophagosomes was at least 3-fold greater.

osteosarcoma U2OS cells = test: Induction of cytoplasmic vacuoles (enlarged lysosomes) in U2OS cells, light microscopy; assay type: cell-based, human
Text: Vehicle is the concentration of DMSO that was introduced by addition of compounds.
These effects are dependent on the compound selected, its concentration and the length of time cells are exposed to the compound.
(§1) Cells were obtained from the American Type Culture Collection. BORCS5-KO HeLa cells have been described previously. Osteosarcoma U2OS were routinely seeded in 6-well plates (0.5×10^5 cells/well) and cultured in Dulbecco's Modified Eagle's medium supplemented with L-Glutamine, 4.5 g/L Glucose, Sodium Pyruvate, Phenol Red, and either heat-inactivated or normal 10% fetal calf serum at 37° C. in 5% CO2. Approximately 15-19 hours later, the indicated compound was added in 1:1000 dilutions. Results were the same using either heat-inactivated or normal fetal calf serum. Melanoma A375, embryonic kidney 293T and human foreskin fibroblast Hs27 cells were cultured in the same medium, except that cells were seeded into 12-well plates at 10^3 cells/well.
Phase contrast photographs were taken on an Olympus CKX41 microscope. Confocal photographs were taken on a Leica TCS-SP5II. For immunofluorescence microscopy, the cells were fixed in 4% paraformaldehyde (Electron Microscopy Sciences, 15714) in PBS for 12 min, permeabilized with 0.2% Triton X-100 in PBS for 10 min, and blocked in 0.2% BSA (Sigma-Aldrich, A7030) in PBS for 30 min at 37° C. For endogenous LC3 staining, cells were permeabilized in methanol for 20 min at −20° C. after the paraformaldehyde fixation. The cells were sequentially incubated with primary antibodies (LAMP1: Developmental Studies Hybridoma Bank; LC3 and LAMTOR4: Cell Signaling Technology; FLAG epitope: Sigma-Aldrich) and secondary antibodies conjugated to Alexa Fluor dyes (Life Technologies) diluted with 0.2% BSA in PBS for 30 min at 37° C. Coverslips were mounted on glass slides using Fluoromount-G (Electron Microscopy Sciences, 17984-24). Cells were imaged using a Zeiss LSM880 with AiryScan confocal microscope (Carl Zeiss AG, Oberkochen, Germany) or a Leica TCS-SP5II. The final composite images were created and properly analyzed for lysosomal size examination using ImageJ (NIH).

[2] = test system: human foreskin fibroblasts; test: Proliferation/viability of human foreskin fibroblasts; assay type: cell-based; settings: Fibroblast; human foreskin fibroblasts; read-out: EC50
Description: Concentration of each compound in the plate assay is indicated below the compound 1 plate.
as §1, with “Results were the same using either heat-inactivated or normal fetal calf serum.” left out

embryonic kidney cells = test: Viability of embryonic kidney cells; assay type: cell-based; settings: Homo sapiens; embryonic kidney cells; read-out: EC50
Description: FIG. 18 summarizes results from 13 human cell lines. All cells were seeded at the same cell density in a rich culture medium and assayed under identical conditions. Compound 1 efficacy is the ratio of cell viability with compound 1 to cell viability with chloroquine derivatives.
as §1, with “Results were the same using either heat-inactivated or normal fetal calf serum.” left out

melanoma A375 tumors = test: Vacuolation and autophagy markers within tumors of treated mice; assay type: in vivo
Text: Cytoplasmic vacuolation was clear in tumors from compound 1-treated mice, and the extent of vacuolation was clearly greater at with greater concentrations of compound 1.
To determine whether or not compound 1 injected intraperitoneally was active within the tumor, tumor slices were stained with hematoxylin and eosin to visualize cellular structure.

C1=Nc2ccccc2/C1=C/NNc1nc(Nc2ccccc2)nc(N2CCOCC2)n1 [compound 1]
Cellular level of mature cathepsin D relative to vehicle treated cells [1]: about 50%
Density of autophagosomes relative to rapamycin alone (U2OS cells): at least 3 fold
Time to detect vacuoles by light microscopy (osteosarcoma U2OS cells; U2OS cells): ≤ 20 min
Variation of the concentration required to induce vacuolization, most potent compared to least potent (osteosarcoma U2OS cells; U2OS cells, compound 1 compared to compound 3): 400 fold
Concentration at which 80% of the cells were vacuolated (osteosarcoma U2OS cells; by 4 hours): 0.01 to 0.1 µM
Concentration to induce LC3-II accumulation, inhibit proliferation or viability relative to concentration to observe vacuolization (osteosarcoma U2OS cells; same U2OS cells): about 30 fold
EC50 [2]: > 10 µM
EC50 (embryonic kidney cells): > 10 µM
LC3-II and p62 proteins in tumor lysates (melanoma A375 tumors; Western blot): increased levels of LC3-H and p62 proteins
Cytoplasmic vacuolation in tumor slices (melanoma A375 tumors; hematoxylin and eosin): clearly evident
